Reference: publication PMC8909834, “An Orally Bioavailable and Highly Efficacious Inhibitor of CDK9/FLT3 for the Treatment of Acute Myeloid Leukemia” (Cancers, 2022)

Tests used:
Test in all cases: Kinase Hotspot radiolabel assay
Format in all cases: biochemical
Details in all cases: read-out: % Residual Activity
ALK4/ACVR1B = target: T1, ALK4/ACVR1B (Homo sapiens, UniProt P36896)
T1 construct: purchased Reaction Biology Corporation (Kinase HotSpot)
Method: (§1) Kinase assay. The ADP Glo^TM kinase assay (Promega, Madison, WI, USA) was used to assess the inhibition by CDDD11-8 of CDKs 1, 2, 4, 6, 7, and 9, as well as the mutant isoforms of FLT3. The assays were performed in accord with the manufacturer’s protocol (Promega) as described previously. Briefly, serial three-fold dilutions of CDDD11-8 were prepared in 100% DMSO from a 2 mM stock solution, followed by 1:40 dilution into Milli-Q water. Subsequently, 1 µL of each sample was incubated with 4 µL of kinase mixture containing a particular CDK enzyme and its substrate, standard kinase buffer [3 mM MgCl2, 50 mM HEPES-NaOH pH 7.5, 3 mM MnCl2, 3 µM Na-orthovanadate, 1 mM dithiothreitol (DTT)], kinase dilution buffer (containing 0.25 mg/mL PEG20,000, 50 mM HEPES-NaOH pH 7.5, 1 mM DTT), and ATP at 37 °C for 30 to 40 min. The final reaction mixture contained 0.5% DMSO in all samples, and the applied kinase concentrations were 1, 1, 10, 40, 20, and 50 nM for CDK1, 2, 4, 6, 7, and 9, respectively. The reaction was stopped by adding ADP-Glo reagent and the mixture was incubated further in the dark at room temperature for 40 min. As a final step, kinase detection reagent was added to each mixture and incubated at room temperature for 30 to 60 min. Luminescence was read using an EnVision® multilabel plate reader (PerkinElmer, Beaconsfield, UK), and half-maximum inhibitory concentrations (IC50) were calculated using a non-linear regression model with a variable slope, plotting log (inhibitor concentration) vs. response using the following formula: Ar%=Bottom+Top−Bottom/1+Inhibitor Concentration/IC50^HillSlope where the relative activity Ar (%) is the signal relative to the controls, IC50 is the half maximum concentration, Hillslope is the steepness of the dose-response curve, Top and Bottom are plateaus reflecting the maximum and minimum in responses on the Y-axis (GraphPad Prism version 7, San Diego, CA, USA). Ki values were calculated from the IC50 using the Cheng−Prusoff equation [32]. Extensive specificity assessment was carried out by Reaction Biology Corporation (Malvern, PA, USA) with 369 kinases using 1 µM CDDD11-8 concentration in a Kinase Hotspot radiolabel assay (for experimental details, please see (Reaction Biology https://www.reactionbiology.com/). Subsequently, Ki values were determined for kinases with greater than 90% inhibition.

ARAF = target: T2, ARAF (Homo sapiens, UniProt P10398)
T2 construct: purchased Reaction Biology Corporation (Kinase HotSpot)
Method: as §1

Aurora A = target: T3, Aurora A (Homo sapiens, UniProt O14965)
T3 construct: purchased Reaction Biology Corporation (Kinase HotSpot)
Method: as §1

Aurora C = target: T4, Aurora C (Homo sapiens, UniProt Q9UQB9)
T4 construct: purchased Reaction Biology Corporation (Kinase HotSpot)
Method: as §1

CAMK1g = target: T5, CAMK1g (Homo sapiens, UniProt Q96NX5)
T5 construct: purchased Reaction Biology Corporation (Kinase HotSpot)
Method: as §1

CAMK2g = target: T6, CAMK2g (Homo sapiens, UniProt Q13555)
T6 construct: purchased Reaction Biology Corporation (Kinase HotSpot)
Method: as §1

CAMKK2 = target: T7, CAMKK2 (Homo sapiens, UniProt Q96RR4)
T7 construct: purchased Reaction Biology Corporation (Kinase HotSpot)
Method: as §1

CDK16/cyclin Y (PCTAIRE) = target: T8, CDK16/cyclin Y (PCTAIRE) (Homo sapiens, UniProt Q00536)
T8 construct: purchased Reaction Biology Corporation (Kinase HotSpot)
Method: as §1

CK1epsilon = target: T9, CK1epsilon (Homo sapiens, UniProt P49674)
T9 construct: purchased Reaction Biology Corporation (Kinase HotSpot)
Method: as §1

EPHA7 = target: T10, EPHA7 (Homo sapiens, UniProt Q15375)
T10 construct: purchased Reaction Biology Corporation (Kinase HotSpot)
Method: as §1

EPHB2 = target: T11, EPHB2 (Homo sapiens, UniProt P29323)
T11 construct: purchased Reaction Biology Corporation (Kinase HotSpot)
Method: as §1

ERK5/MAPK7 = target: T12, ERK5/MAPK7 (Homo sapiens, UniProt Q13164)
T12 construct: purchased Reaction Biology Corporation (Kinase HotSpot)
Method: as §1

ITK = target: T13, ITK (Homo sapiens, UniProt Q08881)
T13 construct: purchased Reaction Biology Corporation (Kinase HotSpot)
Method: as §1

JAK3 = target: T14, JAK3 (Homo sapiens, UniProt P52333)
T14 construct: purchased Reaction Biology Corporation (Kinase HotSpot)
Method: as §1

MEKK2 = target: T15, MEKK2 (Homo sapiens, UniProt Q9Y2U5)
T15 construct: purchased Reaction Biology Corporation (Kinase HotSpot)
Method: as §1

MRCKa/CDC42BPA = target: T16, MRCKa/CDC42BPA (Homo sapiens, UniProt Q5VT25)
T16 construct: purchased Reaction Biology Corporation (Kinase HotSpot)
Method: as §1

NEK11 = target: T17, NEK11 (Homo sapiens, UniProt Q8NG66)
T17 construct: purchased Reaction Biology Corporation (Kinase HotSpot)
Method: as §1

PDGFRa = target: T18, PDGFRa (Homo sapiens, UniProt P16234)
T18 construct: purchased Reaction Biology Corporation (Kinase HotSpot)
Method: as §1

PDGFRb = target: T19, PDGFRb (Homo sapiens, UniProt P09619)
T19 construct: purchased Reaction Biology Corporation (Kinase HotSpot)
Method: as §1

PKAcb = target: T20, PKAcb (Homo sapiens, UniProt P22694)
T20 construct: purchased Reaction Biology Corporation (Kinase HotSpot)
Method: as §1

PKCb2 = target: T21, PKCb2 (Homo sapiens, UniProt P05771)
T21 construct: purchased Reaction Biology Corporation (Kinase HotSpot)
Method: as §1

PKG1a = target: T22, PKG1a (Homo sapiens, UniProt Q13976)
T22 construct: purchased Reaction Biology Corporation (Kinase HotSpot)
Method: as §1

STK32B/YANK2 = target: T23, STK32B/YANK2 (Homo sapiens, UniProt Q9NY57)
T23 construct: purchased Reaction Biology Corporation (Kinase HotSpot)
Method: as §1

TEC = target: T24, TEC (Homo sapiens, UniProt P42680)
T24 construct: purchased Reaction Biology Corporation (Kinase HotSpot)
Method: as §1

TNK1 = target: T25, TNK1 (Homo sapiens, UniProt Q13470)
T25 construct: purchased Reaction Biology Corporation (Kinase HotSpot)
Method: as §1

TTBK2 = target: T26, TTBK2 (Homo sapiens, UniProt Q6IQ55)
T26 construct: purchased Reaction Biology Corporation (Kinase HotSpot)
Method: as §1

TXK = target: T27, TXK (Homo sapiens, UniProt P42681)
T27 construct: purchased Reaction Biology Corporation (Kinase HotSpot)
Method: as §1

TYK2 = target: T28, TYK2 (Homo sapiens, UniProt P29597)
T28 construct: purchased Reaction Biology Corporation (Kinase HotSpot)
Method: as §1

c-MET = target: T29, c-MET (Homo sapiens, UniProt P08581)
T29 construct: purchased Reaction Biology Corporation (Kinase HotSpot)
Method: as §1

p70S6K/RPS6KB1 = target: T30, p70S6K/RPS6KB1 (Homo sapiens, UniProt P23443)
T30 construct: purchased Reaction Biology Corporation (Kinase HotSpot)
Method: as §1

T27 sequence (P42681 whole entry): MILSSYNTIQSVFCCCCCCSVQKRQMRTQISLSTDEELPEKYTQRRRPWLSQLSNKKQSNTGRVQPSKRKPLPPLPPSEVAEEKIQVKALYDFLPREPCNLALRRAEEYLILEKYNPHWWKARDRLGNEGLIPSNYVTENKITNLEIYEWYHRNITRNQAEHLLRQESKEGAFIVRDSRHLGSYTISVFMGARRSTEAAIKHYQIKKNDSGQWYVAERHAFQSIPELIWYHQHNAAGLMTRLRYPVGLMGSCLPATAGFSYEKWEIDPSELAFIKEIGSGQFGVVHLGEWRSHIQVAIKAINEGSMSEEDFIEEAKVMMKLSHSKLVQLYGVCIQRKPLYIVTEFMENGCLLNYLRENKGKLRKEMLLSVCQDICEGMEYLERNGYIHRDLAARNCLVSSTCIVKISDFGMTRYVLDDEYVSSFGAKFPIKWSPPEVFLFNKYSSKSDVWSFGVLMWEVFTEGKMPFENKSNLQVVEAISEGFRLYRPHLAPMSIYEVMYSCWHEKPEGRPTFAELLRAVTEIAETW
T24 sequence (P42680 whole entry): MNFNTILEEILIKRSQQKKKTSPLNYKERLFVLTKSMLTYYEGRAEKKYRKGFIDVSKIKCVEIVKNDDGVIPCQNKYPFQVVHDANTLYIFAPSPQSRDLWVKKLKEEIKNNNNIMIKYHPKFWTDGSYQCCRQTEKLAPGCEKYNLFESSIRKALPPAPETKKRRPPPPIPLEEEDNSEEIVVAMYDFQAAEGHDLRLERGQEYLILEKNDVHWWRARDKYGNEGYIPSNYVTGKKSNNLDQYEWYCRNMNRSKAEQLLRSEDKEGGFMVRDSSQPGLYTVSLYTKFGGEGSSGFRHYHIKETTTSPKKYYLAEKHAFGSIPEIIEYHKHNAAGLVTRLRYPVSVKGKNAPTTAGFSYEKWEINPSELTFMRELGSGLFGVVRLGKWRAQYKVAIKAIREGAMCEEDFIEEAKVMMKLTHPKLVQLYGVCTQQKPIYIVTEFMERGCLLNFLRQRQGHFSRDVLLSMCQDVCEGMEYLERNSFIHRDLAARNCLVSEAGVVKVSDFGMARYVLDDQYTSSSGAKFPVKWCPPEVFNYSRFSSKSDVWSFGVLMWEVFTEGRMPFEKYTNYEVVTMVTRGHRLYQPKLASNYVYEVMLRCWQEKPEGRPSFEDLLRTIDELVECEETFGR
T3 sequence (O14965 whole entry): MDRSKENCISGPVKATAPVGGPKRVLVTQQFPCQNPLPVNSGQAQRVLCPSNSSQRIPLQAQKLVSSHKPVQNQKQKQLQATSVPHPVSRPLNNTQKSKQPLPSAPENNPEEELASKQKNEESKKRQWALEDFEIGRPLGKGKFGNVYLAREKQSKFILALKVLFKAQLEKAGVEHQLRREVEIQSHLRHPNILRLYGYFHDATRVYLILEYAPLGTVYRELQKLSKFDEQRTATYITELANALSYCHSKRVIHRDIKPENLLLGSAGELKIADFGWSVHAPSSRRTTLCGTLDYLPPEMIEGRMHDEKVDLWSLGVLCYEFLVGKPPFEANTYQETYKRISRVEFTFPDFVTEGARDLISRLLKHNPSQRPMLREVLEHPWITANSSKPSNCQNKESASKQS
T11 sequence (P29323 19-1055): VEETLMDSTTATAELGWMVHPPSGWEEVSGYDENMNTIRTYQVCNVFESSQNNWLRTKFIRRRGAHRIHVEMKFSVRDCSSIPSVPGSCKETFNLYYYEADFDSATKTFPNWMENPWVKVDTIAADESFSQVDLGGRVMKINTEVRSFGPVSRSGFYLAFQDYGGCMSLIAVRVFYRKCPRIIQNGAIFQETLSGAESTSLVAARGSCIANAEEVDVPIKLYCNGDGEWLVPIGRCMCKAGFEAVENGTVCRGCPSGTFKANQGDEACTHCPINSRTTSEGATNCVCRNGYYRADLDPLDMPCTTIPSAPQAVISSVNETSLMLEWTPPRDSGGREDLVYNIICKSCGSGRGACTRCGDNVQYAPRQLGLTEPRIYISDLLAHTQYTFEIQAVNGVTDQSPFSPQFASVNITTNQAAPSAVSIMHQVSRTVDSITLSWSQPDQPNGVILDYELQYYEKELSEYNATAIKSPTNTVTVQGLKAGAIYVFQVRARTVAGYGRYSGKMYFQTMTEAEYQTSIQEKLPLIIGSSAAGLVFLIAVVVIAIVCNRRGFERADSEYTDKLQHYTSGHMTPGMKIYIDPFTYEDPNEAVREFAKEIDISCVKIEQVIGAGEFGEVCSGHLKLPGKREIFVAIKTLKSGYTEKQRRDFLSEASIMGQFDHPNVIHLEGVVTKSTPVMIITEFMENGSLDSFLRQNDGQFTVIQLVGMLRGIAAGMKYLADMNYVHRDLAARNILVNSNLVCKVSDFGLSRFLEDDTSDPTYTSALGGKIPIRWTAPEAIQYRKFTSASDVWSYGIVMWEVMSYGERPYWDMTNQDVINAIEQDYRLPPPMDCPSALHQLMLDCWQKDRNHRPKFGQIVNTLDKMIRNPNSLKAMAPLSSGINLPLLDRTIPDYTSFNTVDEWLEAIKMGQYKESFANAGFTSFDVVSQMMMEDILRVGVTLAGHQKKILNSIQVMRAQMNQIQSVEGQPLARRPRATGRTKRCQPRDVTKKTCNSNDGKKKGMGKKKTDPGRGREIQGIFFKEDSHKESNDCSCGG
T14 sequence (P52333 whole entry): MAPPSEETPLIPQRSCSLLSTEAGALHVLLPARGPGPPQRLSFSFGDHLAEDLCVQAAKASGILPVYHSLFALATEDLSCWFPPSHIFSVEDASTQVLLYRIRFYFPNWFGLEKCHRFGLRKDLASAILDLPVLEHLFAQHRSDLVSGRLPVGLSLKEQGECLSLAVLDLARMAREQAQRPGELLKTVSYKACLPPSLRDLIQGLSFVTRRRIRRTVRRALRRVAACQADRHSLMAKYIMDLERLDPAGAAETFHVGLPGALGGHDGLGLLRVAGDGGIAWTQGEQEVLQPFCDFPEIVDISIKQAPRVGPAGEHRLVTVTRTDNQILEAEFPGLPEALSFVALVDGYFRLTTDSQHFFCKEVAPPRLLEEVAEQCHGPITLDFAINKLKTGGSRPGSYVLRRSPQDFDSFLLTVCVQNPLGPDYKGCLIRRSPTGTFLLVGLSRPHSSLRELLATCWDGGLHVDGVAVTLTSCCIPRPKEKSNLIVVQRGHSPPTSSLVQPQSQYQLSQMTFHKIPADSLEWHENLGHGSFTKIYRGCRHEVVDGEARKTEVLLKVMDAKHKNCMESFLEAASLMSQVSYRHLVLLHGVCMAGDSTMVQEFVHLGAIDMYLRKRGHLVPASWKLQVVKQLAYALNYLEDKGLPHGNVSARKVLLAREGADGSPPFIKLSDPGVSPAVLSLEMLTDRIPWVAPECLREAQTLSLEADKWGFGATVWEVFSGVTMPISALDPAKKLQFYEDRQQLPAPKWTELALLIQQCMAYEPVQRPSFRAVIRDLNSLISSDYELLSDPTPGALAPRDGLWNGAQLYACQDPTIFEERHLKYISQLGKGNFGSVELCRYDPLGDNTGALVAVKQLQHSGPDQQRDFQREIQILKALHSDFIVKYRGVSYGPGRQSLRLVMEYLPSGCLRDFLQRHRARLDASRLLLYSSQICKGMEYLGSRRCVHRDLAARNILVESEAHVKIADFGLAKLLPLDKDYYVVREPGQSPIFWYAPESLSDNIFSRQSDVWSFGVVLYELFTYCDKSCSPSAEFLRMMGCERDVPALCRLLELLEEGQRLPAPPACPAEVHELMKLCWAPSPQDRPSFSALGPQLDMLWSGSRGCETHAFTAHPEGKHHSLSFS
T2 sequence (P10398 whole entry): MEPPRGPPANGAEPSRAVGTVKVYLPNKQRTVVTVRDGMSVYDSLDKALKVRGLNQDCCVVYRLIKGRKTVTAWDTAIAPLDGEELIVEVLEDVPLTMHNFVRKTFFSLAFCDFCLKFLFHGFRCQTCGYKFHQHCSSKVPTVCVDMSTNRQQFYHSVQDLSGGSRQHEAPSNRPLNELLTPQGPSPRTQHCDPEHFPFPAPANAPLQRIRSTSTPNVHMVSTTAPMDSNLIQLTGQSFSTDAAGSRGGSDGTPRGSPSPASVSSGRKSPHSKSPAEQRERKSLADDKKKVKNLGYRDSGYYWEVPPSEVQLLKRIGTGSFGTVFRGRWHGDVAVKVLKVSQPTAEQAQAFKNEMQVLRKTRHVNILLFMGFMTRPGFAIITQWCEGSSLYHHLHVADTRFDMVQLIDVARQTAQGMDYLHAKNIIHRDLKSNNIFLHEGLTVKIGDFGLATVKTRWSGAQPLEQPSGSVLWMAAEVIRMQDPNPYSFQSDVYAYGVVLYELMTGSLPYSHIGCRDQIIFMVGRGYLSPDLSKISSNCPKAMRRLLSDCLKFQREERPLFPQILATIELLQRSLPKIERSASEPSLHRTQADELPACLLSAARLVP
T21 sequence (P05771 1-673 isoform P05771-2): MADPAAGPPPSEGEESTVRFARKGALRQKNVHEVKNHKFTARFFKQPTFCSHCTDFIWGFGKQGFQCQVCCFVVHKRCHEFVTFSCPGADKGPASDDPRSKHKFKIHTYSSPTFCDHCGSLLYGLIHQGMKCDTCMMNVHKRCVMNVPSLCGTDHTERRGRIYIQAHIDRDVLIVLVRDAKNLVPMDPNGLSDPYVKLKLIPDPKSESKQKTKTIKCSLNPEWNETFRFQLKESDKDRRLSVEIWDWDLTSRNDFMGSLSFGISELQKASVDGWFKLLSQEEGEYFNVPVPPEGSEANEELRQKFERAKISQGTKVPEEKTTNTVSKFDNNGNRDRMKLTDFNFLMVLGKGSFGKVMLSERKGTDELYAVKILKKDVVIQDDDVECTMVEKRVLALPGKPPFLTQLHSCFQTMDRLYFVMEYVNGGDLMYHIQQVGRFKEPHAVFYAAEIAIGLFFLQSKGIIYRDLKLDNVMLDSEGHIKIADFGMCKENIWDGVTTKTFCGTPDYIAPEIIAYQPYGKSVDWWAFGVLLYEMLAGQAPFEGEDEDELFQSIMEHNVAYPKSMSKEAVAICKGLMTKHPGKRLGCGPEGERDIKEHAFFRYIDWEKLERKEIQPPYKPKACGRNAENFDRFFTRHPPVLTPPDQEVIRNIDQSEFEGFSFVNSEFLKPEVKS

Question: `Cc1cnc(N[C@H]2CC[C@H](N)CC2)nc1-c1cnc2ccc(-c3ccccc3)cn12` [CDDD11-8] was tested. Which remaining activity at 1 µM (ALK4/ACVR1B) did it give?
Answer: 95.3%

Question: What about the remaining activity at 1 µM (ARAF) of the same molecule?
Answer: 91.5%

Question: And the remaining activity at 1 µM (Aurora A)?
Answer: 79.3%

Question: What about the remaining activity at 1 µM (Aurora C) of the same molecule?
Answer: 82.1%

Question: And the remaining activity at 1 µM (CAMK1g)?
Answer: 97.7%

Question: And the remaining activity at 1 µM (CAMK2g)?
Answer: 96.8%

Question: And the remaining activity at 1 µM (CAMKK2)?
Answer: 47.7%

Question: What about the remaining activity at 1 µM (CDK16/cyclin Y (PCTAIRE)) of the same molecule?
Answer: 57.4%

Question: And the remaining activity at 1 µM (CK1epsilon)?
Answer: 37.1%

Question: And the remaining activity at 1 µM (EPHA7)?
Answer: 105%

Question: And the remaining activity at 1 µM (EPHB2)?
Answer: 80.2%

Question: What about the remaining activity at 1 µM (ERK5/MAPK7) of the same molecule?
Answer: 93.3%

Question: What about the remaining activity at 1 µM (ITK) of the same molecule?
Answer: 87.5%

Question: What about the remaining activity at 1 µM (JAK3) of the same molecule?
Answer: 48.5%

Question: And the remaining activity at 1 µM (MEKK2)?
Answer: 105%

Question: What about the remaining activity at 1 µM (MRCKa/CDC42BPA) of the same molecule?
Answer: 97.7%

Question: And the remaining activity at 1 µM (NEK11)?
Answer: 100%

Question: And the remaining activity at 1 µM (PDGFRa)?
Answer: 49.3%

Question: And the remaining activity at 1 µM (PDGFRb)?
Answer: 40.2%

Question: And the remaining activity at 1 µM (PKAcb)?
Answer: 89.6%

Question: And the remaining activity at 1 µM (PKCb2)?
Answer: 121%

Question: And the remaining activity at 1 µM (PKG1a)?
Answer: 61.7%

Question: What about the remaining activity at 1 µM (STK32B/YANK2) of the same molecule?
Answer: 96.7%

Question: And the remaining activity at 1 µM (TEC)?
Answer: 101%

Question: What about the remaining activity at 1 µM (TNK1) of the same molecule?
Answer: 55.4%

Question: And the remaining activity at 1 µM (TTBK2)?
Answer: 93%

Question: What about the remaining activity at 1 µM (TXK) of the same molecule?
Answer: 60.4%

Question: What about the remaining activity at 1 µM (TYK2) of the same molecule?
Answer: 93.2%

Question: What about the remaining activity at 1 µM (c-MET) of the same molecule?
Answer: 103%

Question: What about the remaining activity at 1 µM (p70S6K/RPS6KB1) of the same molecule?
Answer: 94.5%
